The supplement of paper PMC8967900

How the values were obtained:
Test in all cases: selective drug sensitivity score (sDSS, relative to normal bone marrow) (sDSS (score)); higher = more potent and effective on the cell line relative to normal bone marrow cells
Conditions in all cases: 72 h
DND-41 = test system: DND-41
MOLT-16 = test system: MOLT-16
REH = test system: REH
KASUMI-9 = test system: KASUMI-9
NALM-16 = test system: NALM-16
TANOUE = test system: TANOUE
HAL-01 = test system: HAL-01
CCRF-HSB2 = test system: CCRF-HSB2
MOLT-4 = test system: MOLT-4
COG-LL-355h = test system: COG-LL-355h
SUP-B15 = test system: SUP-B15
KASUMI-2 = test system: KASUMI-2
PEER = test system: PEER
MHH-CALL-3 = test system: MHH-CALL-3
KASUMI-10 = test system: KASUMI-10
PF-382 = test system: PF-382
KOPN-8 = test system: KOPN-8
RPMI-8402 = test system: RPMI-8402
COG-LL-394h = test system: COG-LL-394h
NALL-1 = test system: NALL-1
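Further: ALL cell lines in 384-well plates, five doses spanning 10,000-fold, each plate scaled between vehicle and 100 µmol/L benzalkonium chloride controls, sDSS an adapted area-under-curve metric.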

Row | Structure (SMILES) | selective drug sensitivity score (DND-41) | selective drug sensitivity score (MOLT-16) | selective drug sensitivity score (REH) | selective drug sensitivity score (KASUMI-9) | selective drug sensitivity score (NALM-16) | selective drug sensitivity score (TANOUE) | selective drug sensitivity score (HAL-01) | selective drug sensitivity score (CCRF-HSB2) | selective drug sensitivity score (MOLT-4) | selective drug sensitivity score (COG-LL-355h) | selective drug sensitivity score (SUP-B15) | selective drug sensitivity score (KASUMI-2) | selective drug sensitivity score (PEER) | selective drug sensitivity score (MHH-CALL-3) | selective drug sensitivity score (KASUMI-10) | selective drug sensitivity score (PF-382) | selective drug sensitivity score (KOPN-8) | selective drug sensitivity score (RPMI-8402) | selective drug sensitivity score (COG-LL-394h) | selective drug sensitivity score (NALL-1)
1 | CO[C@H]1C[C@@H]2CC[C@@H](C)[C@@](O)(O2)C(=O)C(=O)N2CCCC[C@H]2C(=O)O[C@H]([C@H](C)C[C@@H]2CC[C@@H](O)[C@H](OC)C2)CC(=O)[C@H](C)/C=C(\C)[C@@H](O)[C@@H](OC)C(=O)[C@H](C)C[C@H](C)/C=C/C=C/C=C/1C [Sirolimus] (top concentration 100 nM) | -0.16 | 5.04 | 0.54 | 4.74 | -2.26 | -3.76 | 0.44 | 3.14 | -2.46 | -0.66 | 5.04 | 2.84 | 3.74 | 5.74 | -3.76 | 1.84 | 17.9 | -1.76 | -3.76 | -3.66
2 | Cn1ncc(Cl)c1-c1cc(C(=O)N[C@H](CN)Cc2ccc(F)c(F)c2)oc1Cl [Uprosertib] (top concentration 10000 nM) | -1.3 | 19.1 | 9.6 | 0.7 | 5.4 | -1.2 | 3.9 | 0.7 | 9.3 | 6.8 | -1.4 | 8.3 | 8.5 | -1.4 | -1.4 | 4.6 | 9.1 | 3.4 | -0.6 | -1.4
3 | CC(C)(C)Cn1c(N)nc2ccc(-c3[nH]c(C(C)(C)C)nc3-c3ccc(F)cc3)nc21 [Ralimetinib] (top concentration 10000 nM) | 5.36 | 12.6 | 2.36 | 8.76 | -0.84 | -0.44 | -0.74 | 1.26 | 8.36 | 7.86 | 7.36 | 1.56 | 2.26 | -0.84 | 0.86 | 2.06 | 4.26 | 4.26 | 4.16 | -0.84
4 | NC(=O)N1CCC(CC(=O)N2CCC([C@H]3c4ncc(Br)cc4CCc4cc(Cl)cc(Br)c43)CC2)CC1 [Lonafarnib] (top concentration 100000 nM) | 4.54 | 11.2 | 8.04 | 9.14 | 4.04 | -3.96 | 3.44 | 9.14 | 10.5 | 9.34 | 11.9 | 6.14 | 5.94 | 4.54 | -1.56 | 9.44 | 12.8 | 19.2 | 3.04 | 1.54
5 | CCN(CC)CCNC(=O)c1c(C)[nH]c(/C=C2\C(=O)Nc3ccc(-c4csc(-c5ccccc5)n4)cc32)c1C [Amcasertib] (top concentration 10000 nM) | 6.8 | 3.5 | 3.6 | -0.2 | -2.1 | -2.6 | 7.4 | 3.1 | -2.4 | 6.8 | 0.5 | 0.8 | 4 | -3.2 | 5.2 | 2.7 | -1.1 | -1.5 | 1.3 | 5.2
6 | CC(C)[C@H](C(=O)Nc1ccc(C(=O)NO)cc1)c1ccccc1 [AR-42] (top concentration 10000 nM) | 6.98 | 8.38 | 5.38 | 8.08 | 1.68 | -4.22 | 3.28 | 7.28 | 7.08 | 6.68 | 9.58 | 16 | 9.18 | 14.3 | 6.88 | 5.78 | 10.6 | 8.18 | 2.08 | 3.68
7 | CCNC(=O)C[C@@H]1N=C(c2ccc(Cl)cc2)c2cc(OC)ccc2-n2c(C)nnc21 [Molibresib] (top concentration 10000 nM) | -0.9 | 4.9 | 0.8 | 9.1 | 1.6 | -6.2 | 2.7 | -0.5 | -4.4 | 1.7 | 3.2 | -2.7 | -3 | 16.7 | 5.3 | 2.7 | 10.6 | 1.4 | -2.1 | 3.4
8 | O=C(Nc1cccc(NC(=O)c2cccc(O)c2O)c1)c1cccc(O)c1O [MST-312] (top concentration 10000 nM) | 7.2 | 17.3 | 7.4 | 5 | 2.8 | 3.7 | 7.6 | 12.8 | 9.2 | 3.2 | 9.5 | -1.6 | 9.4 | -4 | 1 | 6 | 15.2 | 5.9 | 1.1 | 0.8
9 | CC(=O)O[C@]1(C(C)=O)CC[C@H]2[C@@H]3C=C(C)C4=CC(=O)CC[C@]4(C)[C@H]3CC[C@@]21C [Megestrol_acetate] (top concentration 10000 nM) | 16.8 | 0.32 | 0.52 | 3.92 | -0.58 | -0.38 | 3.32 | 0.62 | 0.02 | 0.52 | 0.32 | -0.58 | 0.32 | 4.22 | -0.58 | 0.32 | 3.02 | 0.52 | 1.62 | 6.52
10 | Nc1ccn([C@@H]2O[C@H](CO)[C@@H](O)C2(F)F)c(=O)n1 [Gemcitabine] (top concentration 1000 nM) | 9.26 | 21.5 | 13 | 16.3 | 8.06 | -7.34 | 20.4 | 22 | 10.4 | 7.16 | 17.1 | 15.1 | 5.06 | 13.4 | 16.8 | 13.5 | 26.4 | 9.56 | -8.04 | 10.3
11 | CC1(C)CCC(c2ccc(Cl)cc2)=C(CN2CCN(c3ccc(C(=O)NS(=O)(=O)c4ccc(N[C@H](CCN5CCOCC5)CSc5ccccc5)c(S(=O)(=O)C(F)(F)F)c4)cc3)CC2)C1 [Navitoclax] (top concentration 10000 nM) | 15.1 | 12.2 | 4.92 | 19.8 | 19.2 | -8.58 | 14.8 | 8.92 | 15.6 | 28.9 | 27.5 | 24.8 | 12.2 | 29 | 26.4 | 13.7 | 23.2 | 7.42 | 19.2 | 22.9
12 | NC1(c2ccc(-c3nc4ccn5c(=O)[nH]nc5c4cc3-c3ccccc3)cc2)CCC1 [MK-2206] (top concentration 1000 nM) | -1.64 | 6.16 | 6.26 | 4.36 | 2.46 | -1.64 | 6.96 | 3.26 | 2.76 | 5.06 | -0.44 | 6.46 | -1.64 | 3.86 | -0.44 | 3.26 | 3.46 | 1.96 | -1.64 | 6.26
13 | COc1cc2c(cc1-c1c(C)noc1C)ncc1[nH]c(=O)n([C@H](C)c3ccccn3)c12 [I-BET151] (top concentration 10000 nM) | 0.86 | 5.96 | -2.24 | 11.2 | 2.06 | -2.84 | 1.26 | 0.06 | -4.34 | 1.86 | 5.96 | -2.94 | 1.26 | 14.3 | 5.66 | 4.06 | 11.8 | 4.36 | 0.86 | -0.14
14 | C=CC(=O)N1CC/C(=C\c2ccc(F)c([N+](=O)[O-])c2)C(=O)/C(=C/c2ccc(F)c([N+](=O)[O-])c2)C1 [VLX1570] (top concentration 10000 nM) | 1.18 | -1.32 | 1.98 | 0.88 | -3.72 | -6.32 | -2.52 | -2.12 | -5.62 | 6.08 | 1.38 | -2.62 | -4.72 | 5.98 | 1.58 | -1.72 | 3.88 | -6.52 | -1.92 | -4.52
15 | C[C@H]1C=C2C(=O)O[C@H]3CC[C@@H](C1)[C@@]23O [Galiellalactone] (top concentration 25000 nM) | 3.86 | 3.36 | 3.66 | 6.76 | 6.06 | -0.94 | 6.06 | 2.76 | -0.44 | 3.66 | 3.46 | -0.44 | 1.66 | 11.4 | 4.56 | 4.16 | 4.16 | 0.06 | -0.74 | -4.54
16 | C[C@@H](Nc1cc(F)cc(F)c1)c1cc(C(=O)N(C)C)cc2c(=O)cc(N3CCOCC3)oc12 [AZD-8186] (top concentration 1000 nM) | -0.26 | -0.26 | 9.54 | 6.04 | -0.06 | -0.26 | 8.14 | 1.64 | -0.06 | 5.04 | -0.26 | 7.54 | -0.26 | 3.84 | -0.26 | 0.54 | 3.44 | 0.44 | -0.26 | 2.34
17 | C[C@@]1(C(=O)Nc2ccc(F)nc2)CCCN1c1nc(Nc2cc(C3CC3)n[nH]2)c2cccn2n1 (top concentration 10000 nM) | -5.02 | 12.5 | 9.08 | 8.08 | 2.88 | -6.52 | 2.58 | 12.1 | 8.68 | 12.1 | 8.98 | -6.52 | 11.2 | 3.28 | 4.68 | 6.18 | 4.68 | 5.58 | 5.98 | 8.98
18 | CCCCCCCCCCCCCCCCOP(=O)([O-])OCC[N+](C)(C)C [Miltefosine] (top concentration 100000 nM) | 2.66 | -1.34 | 2.76 | 0.46 | -0.34 | 1.76 | -1.34 | 7.26 | 0.26 | 1.36 | 2.36 | 1.76 | 13.1 | -2.94 | -1.14 | 1.16 | 7.56 | 1.46 | -1.54 | 5.26
